{"source": "paper PMC8402547", "about": "“In Vitro and In Vivo Analysis of Ochratoxin A-Derived Glucuronides and Mercapturic Acids as Biomarkers of Exposure” (Toxins, 2021)", "format_in_all_cases": "in vivo, male F344/N rats", "key": {"[1]": {"assay": "14-day rat study: 24 h urinary excretion of OTA and OTA-glucuronides, LC–MS/MS with and without β-glucuronidase hydrolysis", "conditions": "for Urinary excretion / Urinary excretion, fraction of the administered dose: 2 mg OTA/kg bw oral, 5 d/week; for Urinary excretion, fraction of the administered dose: 24 h urine", "procedure": "(§1) 14-day study: Male F344 rats (170–190 g) were purchased from Charles-River Laboratories, Sulzfeld, Germany. Animals had free access to water and standard diet (Altromin) and were kept under standard conditions (12 h day/night cycle, temperature 21–23 °C, humidity 45–55%). Rats were transferred to metabolic cages (Tecniplast Metabolic Cage—Rats Over 300 g; Tecniplast, Italy) for collection of urine 3 days prior to dosing. Animals were administered OTA dissolved in corn oil by oral gavage at 0, 0.25, 0.5, 1.0 and 2.0 mg/kg bw for 2 weeks (5 days per week). Urine was collected every 12 h on day 1 of treatment and every 24 h thereafter on ice, aliquoted and stored at −20 °C until further analysis.\n(§2) Duplicate analysis of OTA in urine samples with and without enzymatic hydrolysis allowed for indirect measurement of glucuronides, whereby an increase in the concentration of OTA in the samples incubated with enzyme compared to those without enzymatic treatment reflected the hydrolyzed glucuronides. Aliquots of rat urine (125 µL) were mixed with 0.1 M sodium acetate (104 µL; pH = 5). For analysis of the concentration of OTA without enzymatic hydrolysis, an aliquot (30 µL) of this solution was removed and mixed with 7 µL acetonitrile. The remaining solution (199 µL) was incubated with β-glucuronidase (1.65 µL; <100,000 units/mL) at 37 °C for 1 h. Hydrolysis was terminated by addition of ice-cold acetonitrile (50 µL) and centrifugation (15 min., 4 °C, 20,000× g). To 98 µL supernatant, 2 µL isotopically labeled ^13C20-OTA in acetonitrile (14-day study: 5 µg/mL; 90-day study: 1 µg/mL) was added as an internal standard. For analysis, 10 µL of each sample were injected into the LC–MS system and analyzed using the method described below. A calibration curve was prepared from solutions of OTA and the isotopically labeled ^13C20-OTA internal standard in acetonitrile and subsequent dilution with urine of a control animal.\n(§3) LC–MS/MS analyses were performed on an Agilent 1100 series LC coupled to an API 2000/Q-Trap mass spectrometer (Applied Biosystems/MDS Sciex, Concord, Canada). Samples were injected into the LC–MS/MS system through an Agilent 1100 series autosampler. Separations were carried out on a ReproSil-Pur C18 AQ column (2 mm × 150 mm, 5 µm; Dr. Maisch; Ammerbuch, Germany). Gradient elution of OTA-derived metabolites was carried out with water + 0.1% formic acid (solvent A) and acetonitrile (solvent B). Initially, solvent A was held isocratic for 5 min at 100%, followed by a linear gradient to 95% B in 5 min. These conditions were held for further 5 min. Within 1 min, the gradient decreased linearly to 0% B and remained at initial conditions until the end of analysis (30 min). A flow rate of 0.2 mL/min was used. For each run, 10 µL of the respective sample were injected by the autosampler.\n(§4) The API 2000/Q-Trap mass spectrometer was operated with a Turbo Ion Spray source in negative ion mode with a voltage of −4000 V. Spectral data were recorded with N2 as the heater gas at 450 °C and as the collision gas (CAD = −2) in multiple reaction monitoring mode (MRM)."}, "[2]": {"assay": "90-day rat study: 24 h urinary excretion of OTA and OTA-glucuronides, LC–MS/MS with and without β-glucuronidase hydrolysis", "conditions": "for Urinary excretion, fraction of the administered dose / Urinary excretion: 5 days/week; for Urinary excretion, fraction of the administered dose: 24 h urine", "procedure": "(§5) 90-day study: Male F344/N rats (6–7 weeks old) were purchased from Harlan-Winkelmann, Borchen, Germany. Animals were housed in groups of 5 in Macrolon type-4 cages and allowed free access to pelleted standard rat maintenance diet (SSNIFF, Soest, Germany) and tap water. After a week of acclimatization, rats (n = 5/dose) were exposed to OTA dissolved in corn oil by oral gavage at doses of 0, 21, 70 or 210 µg/kg bw for 2, 4 or 13 weeks (5 days per week). For urine collection, animals were transferred into metabolic cages (Tecniplast Metabolic Cage—Rats Over 300 g; Tecniplast, Italy) 48 h prior to necropsy and fasted for 20 h but allowed free access to tap water. Urine was collected for 24 h on ice, aliquoted and stored at −20 °C until further analysis.\nas §2, §3, §4"}, "[3]": {"assay": "Direct LC–MS/MS analysis of OTA metabolites in urine of OTA-treated rats", "conditions": "OTA up to 2 mg/kg bw, negative ionization mode", "procedure": "Archived urine samples from previous repeated dose oral toxicity studies on OTA in male F344/N rats were used. The studies were performed according to national animal welfare regulations after authorization by the local authorities (Regierung von Unterfranken, AZ 621-2531.01-9/98 and AZ 54-2531.01-59/05).\nas §1, §5\nUrine samples were diluted with acetonitrile (2:1), vortexed and cleared via centrifugation (4 °C, 15 min., 2000× g) to precipitate proteins. Of the resulting supernatant, 10 µL were injected into the LC–MS system and analyzed using the method described below.\nas §3, §4\nIn addition to MRM, constant neutral loss of 129 amu in the negative ion mode based on the characteristic fragmentation pattern of mercapturic acids was used to screen for N-acetyl-cysteine conjugates of OTA. Furthermore, constant neutral loss of 176 amu in positive ion mode based on the fragmentation pattern of glucuronic acid conjugates was used to screen for OTA glucuronides."}, "[4]": {"conditions": "4 weeks treatment, OTA 210 μg/kg bw per day oral, n = 1"}}, "data": [{"smiles": "CC1Cc2c(Cl)cc(C(=O)NC(Cc3ccccc3)C(=O)OC3OC(C(=O)O)C(O)C(O)C3O)c(O)c2C(=O)O1", "note": "(centres unmarked) [OTA-Glucuronide]", "values": [{"measurement": "Urinary excretion", "setting": "[1]; animal 2, day 3 of treatment", "result": 0.6, "unit": "nmol/24 h"}, {"measurement": "Urinary excretion, fraction of the administered dose", "setting": "[1]; animal 2, day 3 of treatment", "result": 0.1, "unit": "%"}, {"measurement": "Urinary excretion", "setting": "[1]; animal 2, day 5 of treatment", "result": 7.0, "unit": "nmol/24 h"}, {"measurement": "Urinary excretion, fraction of the administered dose", "setting": "[1]; animal 2, day 5 of treatment", "result": 0.8, "unit": "%"}, {"measurement": "Urinary excretion", "setting": "[1]; animal 2, day 7 of treatment", "result": 0.7, "unit": "nmol/24 h"}, {"measurement": "Urinary excretion, fraction of the administered dose", "setting": "[1]; animal 2, day 7 of treatment", "result": 0.1, "unit": "%"}, {"measurement": "Urinary excretion", "setting": "[1]; animal 2, day 9 of treatment", "result": 12.2, "unit": "nmol/24 h"}, {"measurement": "Urinary excretion, fraction of the administered dose", "setting": "[1]; animal 2, day 9 of treatment", "result": 1.4, "unit": "%"}, {"measurement": "Urinary excretion", "setting": "[1]; animal 2, day 11 of treatment", "result": 3.1, "unit": "nmol/24 h"}, {"measurement": "Urinary excretion, fraction of the administered dose", "setting": "[1]; animal 2, day 11 of treatment", "result": 0.4, "unit": "%"}, {"measurement": "Urinary excretion", "setting": "[1]; animal 2, day 13 of treatment", "result": 3.4, "unit": "nmol/24 h"}, {"measurement": "Urinary excretion, fraction of the administered dose", "setting": "[1]; animal 2, day 13 of treatment", "result": 0.4, "unit": "%"}, {"measurement": "Urinary excretion", "setting": "[1]; animal 3, day 3 of treatment", "result": 1.5, "unit": "nmol/24 h"}, {"measurement": "Urinary excretion, fraction of the administered dose", "setting": "[1]; animal 3, day 3 of treatment", "result": 0.2, "unit": "%"}, {"measurement": "Urinary excretion", "setting": "[1]; animal 3, day 5 of treatment", "result": 1.6, "unit": "nmol/24 h"}, {"measurement": "Urinary excretion, fraction of the administered dose", "setting": "[1]; animal 3, day 5 of treatment", "result": 0.3, "unit": "%"}, {"measurement": "Urinary excretion", "setting": "[1]; animal 3, day 7 of treatment", "result": 22.0, "unit": "nmol/24 h"}, {"measurement": "Urinary excretion, fraction of the administered dose", "setting": "[1]; animal 3, day 7 of treatment", "result": 2.4, "unit": "%"}, {"measurement": "Urinary excretion", "setting": "[1]; animal 3, day 9 of treatment", "result": 16.9, "unit": "nmol/24 h"}, {"measurement": "Urinary excretion, fraction of the administered dose", "setting": "[1]; animal 3, day 9 of treatment", "result": 1.9, "unit": "%"}, {"measurement": "Urinary excretion", "setting": "[1]; animal 3, day 11 of treatment", "result": 22.5, "unit": "nmol/24 h"}, {"measurement": "Urinary excretion, fraction of the administered dose", "setting": "[1]; animal 3, day 11 of treatment", "result": 2.5, "unit": "%"}, {"measurement": "Urinary excretion", "setting": "[1]; animal 3, day 13 of treatment", "result": 6.384, "unit": "nmol/24 h"}, {"measurement": "Urinary excretion, fraction of the administered dose", "setting": "[1]; animal 3, day 13 of treatment", "result": 0.7, "unit": "%"}, {"measurement": "24 h urinary excretion, % of the daily administered dose", "setting": "[1]; range over the course of the study, OTA 2 mg/kg bw for 2 weeks (5 days/week)", "result": "0.1–2.5%"}, {"measurement": "Urinary excretion, fraction of the administered dose", "setting": "[2]; 2 weeks treatment, OTA 21 μg/kg bw per day oral", "result": 0.8, "unit": "%"}, {"measurement": "Urinary excretion", "setting": "[2]; 2 weeks treatment, OTA 21 μg/kg bw per day oral, mean ± SD", "result": "0.10 ± 0.02", "unit": "nmol/24 h"}, {"measurement": "Urinary excretion, fraction of the administered dose", "setting": "[2]; 2 weeks treatment, OTA 70 μg/kg bw per day oral", "result": 0.6, "unit": "%"}, {"measurement": "Urinary excretion", "setting": "[2]; 2 weeks treatment, OTA 70 μg/kg bw per day oral, mean ± SD", "result": "0.23 ± 0.08", "unit": "nmol/24 h"}, {"measurement": "Urinary excretion, fraction of the administered dose", "setting": "[2]; 2 weeks treatment, OTA 210 μg/kg bw per day oral", "result": 0.4, "unit": "%"}, {"measurement": "Urinary excretion", "setting": "[2]; 2 weeks treatment, OTA 210 μg/kg bw per day oral, mean ± SD", "result": "0.48 ± 0.36", "unit": "nmol/24 h"}, {"measurement": "Urinary excretion, fraction of the administered dose", "setting": "[2]; 4 weeks treatment, OTA 21 μg/kg bw per day oral", "result": 0.7, "unit": "%"}, {"measurement": "Urinary excretion", "setting": "[2]; 4 weeks treatment, OTA 21 μg/kg bw per day oral, mean ± SD", "result": "0.08 ± 0.09", "unit": "nmol/24 h"}, {"measurement": "Urinary excretion, fraction of the administered dose", "setting": "[2]; 4 weeks treatment, OTA 70 μg/kg bw per day oral", "result": 1.5, "unit": "%"}, {"measurement": "Urinary excretion", "setting": "[2]; 4 weeks treatment, OTA 70 μg/kg bw per day oral, mean ± SD", "result": "0.61 ± 0.67", "unit": "nmol/24 h"}, {"measurement": "Urinary excretion, fraction of the administered dose", "setting": "[2]; [4]", "result": 0.2, "unit": "%"}, {"measurement": "Urinary excretion", "setting": "[2]; [4]", "result": 0.21, "unit": "nmol/24 h"}, {"measurement": "Urinary excretion, fraction of the administered dose", "setting": "[2]; 13 weeks treatment, OTA 21 μg/kg bw per day oral", "result": 0.2, "unit": "%"}, {"measurement": "Urinary excretion", "setting": "[2]; 13 weeks treatment, OTA 21 μg/kg bw per day oral, mean ± SD", "result": "0.03 ± 0.00", "unit": "nmol/24 h"}, {"measurement": "Urinary excretion, fraction of the administered dose", "setting": "[2]; 13 weeks treatment, OTA 70 μg/kg bw per day oral", "result": 1.7, "unit": "%"}, {"measurement": "Urinary excretion", "setting": "[2]; 13 weeks treatment, OTA 70 μg/kg bw per day oral, mean ± SD", "result": "0.85 ± 0.74", "unit": "nmol/24 h"}, {"measurement": "Urinary excretion, fraction of the administered dose", "setting": "[2]; 13 weeks treatment, OTA 210 μg/kg bw per day oral", "result": 1.1, "unit": "%"}, {"measurement": "Urinary excretion", "setting": "[2]; 13 weeks treatment, OTA 210 μg/kg bw per day oral, mean ± SD", "result": "1.72 ± 1.53", "unit": "nmol/24 h"}, {"measurement": "Relationship between OTA dose and urinary excretion (Pearson correlation)", "setting": "[2]; OTA 0, 21, 70, 210 μg/kg bw, 2, 4 and 13 weeks", "result": "linear relationship"}, {"measurement": "Excretion in male rat urine, % of the orally administered dose", "setting": "[2]; male rats, indirect analysis, summary statement in discussion", "result": "less than 2%"}, {"measurement": "Fraction of the administered dose excreted in urine", "setting": "[2]; range over 90-day study, OTA 21, 70 and 210 µg/kg (5 days/week)", "result": "0.2 to 1.7", "unit": "%"}, {"measurement": "Detection in urine of OTA-treated rats by direct LC–MS/MS (MRM)", "setting": "[3]", "result": "failed"}]}]}
